These are literature values, as cited in patent US7101871B2, “Beta-amino heterocyclic dipeptidyl peptidase inhibitors for the treatment or prevention of diabetes” (Merck & Co., Inc., priority 2002, dated 2006).

Data set [1] deals with cardiac allograft. Particulars: rats; doubled from day 7 to day 14.
In data set [2] the test system is hematopoiesis. The conditions noted are these: mouse, cyclophosphamide-induced neutropenia (WO 99/56753).
The subject of data set [3] is GRF degradation in plasma.

Consider `CC(C)N1CCC(c2ccccc2)(c2ccccc2)CC1` [Prodipine, Pro-Pro-diphenyl-phosphonate], for which the cardiac allograft survival in data set [1] is 14 day.

In the case of `CC(C)[C@H](N)C(=O)N1CCC[C@H]1B(O)O` [Val-Boro-Pro], in data set [2], the effect on hematopoiesis result is “stimulated hematopoiesis”.

On to `CC[C@H](C)[C@H](N)C(=O)N1CCC[C@H]1C(=O)N[C@H](C(=O)O)[C@@H](C)CC` [diprotin A], for which the “effect on degradation of GRF to GRF[3-44] in plasma” value in data set [3] is recorded as “prevented”.
